For seven compounds, GI50 and TGI results are on record in PubChem BioAssay (NCI).

Among the test systems are U251 CNS; K-562 leukemia; MOLT-4 leukemia; SF-539 CNS; HT29 colon; SK-MEL-28 melanoma; UACC-62 melanoma; IGROV1 ovarian; UACC-257 melanoma; NCI-H23 lung.
Common to all, as to test: NCI anticancer screen, dose series, 48 h

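48-hour exposure; five concentrations; linearly interpolated endpoints. GI50: concentration for 50% inhibition of growth. The concentration for full growth arrest is given as TGI.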 Some results are limits rather than exact numbers.

`COc1ccc(Nc2nnc(-c3cc(O)ccc3O)s2)cc1`: the GI50 with U251 CNS is 16.7 µM; in the assay on K-562 leukemia, 17.6 µM; in the assay with MOLT-4 leukemia it was 6.5 µM; in the assay with SF-539 CNS, 12.6 µM; in the assay on HT29 colon it was more than 50 µM; in the assay with SK-MEL-28 melanoma, 27.1 µM. Further, the GI50 is 9.89 µM in the assay on UACC-62 melanoma, 28.9 µM with IGROV1 ovarian, more than 50 µM in the assay with UACC-257 melanoma and more than 50 µM with NCI-H23 lung. Moreover, the TGI was more than 50 µM in the assay on U251 CNS; more than 50 µM with K-562 leukemia; 20.6 µM in the assay on MOLT-4 leukemia; 25.8 µM in the assay on SF-539 CNS; more than 50 µM in the assay on HT29 colon; more than 50 µM with SK-MEL-28 melanoma. Also, the TGI in the assay on UACC-62 melanoma is 20.8 µM; in the assay with IGROV1 ovarian, more than 50 µM; in the assay with UACC-257 melanoma, more than 50 µM; in the assay with NCI-H23 lung it was more than 50 µM.
For `COc1cc(F)ccc1-c1ncnc(Nc2cccc(CS(C)(=N)=O)c2)n1` (stereo unspecified), the GI50 is 0.779 µM with U251 CNS; 3.78 µM in the assay on K-562 leukemia; 2.01 µM with MOLT-4 leukemia; 0.385 µM with SF-539 CNS; 0.642 µM in the assay with HT29 colon; 1.05 µM with SK-MEL-28 melanoma. In addition, the GI50 was 0.361 µM in the assay on UACC-62 melanoma, 0.65 µM with IGROV1 ovarian and 0.679 µM in the assay on NCI-H23 lung. Besides, the TGI in the assay on U251 CNS was more than 100 µM; with K-562 leukemia, more than 100 µM; in the assay on MOLT-4 leukemia, 7.06 µM; in the assay on SF-539 CNS, 2.94 µM; with HT29 colon it was 6.39 µM; in the assay on SK-MEL-28 melanoma it was more than 100 µM. The TGI in the assay with UACC-62 melanoma was 3.4 µM; in the assay on IGROV1 ovarian it was more than 100 µM; with NCI-H23 lung, 7.14 µM.
In the case of `COc1ccc(-c2nn(-c3ccc(NC(=O)c4ccc(Cl)c(Cl)c4)cc3)cc2-c2ccncc2)cc1Cl`, the GI50 was 1.3 µM in the assay on U251 CNS; 1.76 µM in the assay with K-562 leukemia; 2.3 µM in the assay with MOLT-4 leukemia; 1.55 µM in the assay on SF-539 CNS; 1.21 µM in the assay on HT29 colon; more than 50 µM in the assay with SK-MEL-28 melanoma. In addition, the GI50 in the assay with UACC-62 melanoma was 1.78 µM; in the assay on IGROV1 ovarian, more than 50 µM; in the assay on UACC-257 melanoma, more than 34.5 µM; in the assay on NCI-H23 lung, more than 12.7 µM. Further, the TGI in the assay with U251 CNS was more than 50 µM; in the assay with K-562 leukemia, more than 30.6 µM; in the assay on MOLT-4 leukemia it was more than 50 µM; in the assay on SF-539 CNS, more than 19 µM; in the assay on HT29 colon it was 3.22 µM; in the assay on SK-MEL-28 melanoma, more than 50 µM. Besides, the TGI was more than 38.7 µM with UACC-62 melanoma, more than 50 µM in the assay on IGROV1 ovarian, more than 50 µM in the assay with UACC-257 melanoma and more than 50 µM in the assay on NCI-H23 lung.
With `CCSc1ncnc2c1ncn2C1OC(CO)C(O)C1O` (stereo unspecified), the GI50 with U251 CNS was 6.39 µM; in the assay on K-562 leukemia, 3.06 µM; with MOLT-4 leukemia, 0.173 µM; with SF-539 CNS it was 0.437 µM; in the assay with HT29 colon, 0.229 µM; in the assay with SK-MEL-28 melanoma, more than 48.3 µM. In addition, the GI50 in the assay on UACC-62 melanoma is 1.48 µM; with IGROV1 ovarian, 0.442 µM; in the assay with UACC-257 melanoma, more than 19.8 µM; in the assay with NCI-H23 lung it was 0.434 µM. The TGI in the assay on U251 CNS was more than 100 µM; in the assay on K-562 leukemia, more than 100 µM; with MOLT-4 leukemia, more than 87.1 µM; with SF-539 CNS, more than 100 µM; with HT29 colon, more than 100 µM; in the assay with SK-MEL-28 melanoma it was more than 100 µM. Moreover, the TGI with UACC-62 melanoma was more than 100 µM; in the assay on IGROV1 ovarian it was 18.1 µM; in the assay on UACC-257 melanoma, more than 100 µM; in the assay with NCI-H23 lung, more than 100 µM.
For `O=C1/C(=C/c2cccc(Cl)c2Cl)N=C(c2ccccc2)N1C1CC1`, the GI50 in the assay with U251 CNS was 12.6 µM; in the assay on K-562 leukemia, 13.5 µM; with MOLT-4 leukemia it was 19.2 µM; with SF-539 CNS it was 10.3 µM; in the assay with HT29 colon it was 18.2 µM; with UACC-62 melanoma, 9.2 µM. Moreover, the GI50 was 19.7 µM in the assay with IGROV1 ovarian, 12.2 µM with UACC-257 melanoma and 9.35 µM with NCI-H23 lung. In addition, the TGI is 34.7 µM in the assay on U251 CNS; more than 50 µM with K-562 leukemia; more than 50 µM in the assay with MOLT-4 leukemia; 22.3 µM in the assay with SF-539 CNS; more than 50 µM in the assay with HT29 colon; 19.5 µM with UACC-62 melanoma. Also, the TGI with IGROV1 ovarian is more than 50 µM; in the assay on UACC-257 melanoma it was 26.2 µM; in the assay on NCI-H23 lung, 19.5 µM.
As for `COc1ccc2[nH]cc(C3(c4c[nH]c5ccc(OC)cc45)C(=O)Nc4ccc(F)cc43)c2c1`, the GI50 with U251 CNS was 2.58 µM; in the assay with K-562 leukemia, 2.24 µM; with MOLT-4 leukemia, 1.97 µM; in the assay on SF-539 CNS it was 3.24 µM; in the assay with HT29 colon it was 2.44 µM; with SK-MEL-28 melanoma it was 2.29 µM. Also, the GI50 was 1.98 µM in the assay with UACC-62 melanoma, 2.64 µM with IGROV1 ovarian, 2.2 µM in the assay with UACC-257 melanoma and 2.43 µM in the assay with NCI-H23 lung. The TGI is 8.83 µM in the assay on U251 CNS; 5.78 µM with K-562 leukemia; 6.08 µM in the assay with MOLT-4 leukemia; 10.5 µM in the assay on SF-539 CNS; 6.14 µM in the assay with HT29 colon; 6.75 µM in the assay on SK-MEL-28 melanoma. Further, the TGI in the assay with UACC-62 melanoma was determined as 6.1 µM; with IGROV1 ovarian, 12.6 µM; in the assay on UACC-257 melanoma, 6.23 µM; in the assay on NCI-H23 lung, 8.06 µM.
For `Cn1cc(C2=C(c3cn(CCCCO)c4ccccc34)C(=O)NC2=O)c2ccccc21`, the GI50 with U251 CNS was 8.55 µM; with K-562 leukemia it was 9.75 µM; in the assay with MOLT-4 leukemia, 7.68 µM; in the assay with SF-539 CNS, 4.91 µM; in the assay on HT29 colon it was 8.3 µM; with SK-MEL-28 melanoma, 12.6 µM. Also, the GI50 in the assay on UACC-62 melanoma is 9.07 µM; in the assay with IGROV1 ovarian, 12.2 µM; in the assay on UACC-257 melanoma, 19.8 µM; in the assay on NCI-H23 lung it was 10.1 µM. Also, the TGI was more than 25 µM in the assay with U251 CNS; more than 25 µM in the assay on K-562 leukemia; more than 22 µM with MOLT-4 leukemia; 16.7 µM in the assay on SF-539 CNS; more than 25 µM in the assay with HT29 colon; more than 25 µM with SK-MEL-28 melanoma. Besides, the TGI in the assay with UACC-62 melanoma is more than 24.1 µM; in the assay on IGROV1 ovarian, more than 22.9 µM; in the assay on UACC-257 melanoma, more than 25 µM; in the assay on NCI-H23 lung it was more than 25 µM.
